In patent publication US9233961B2, “Compounds and compositions for the treatment of parasitic diseases” (Novartis AG, priority 2013, dated 2016) one finds EC50 data, which are given here for 37 compounds.

Read-outs that look alike come from different tables or passages of the source.

In assay [1] the test system is Leishmania donovani axenic amastigote parasites. The experiment in a line: Leishmania donovani axenic amastigote proliferation assay. As to conditions: read-out: L. donovani amastigotes EC50. The format is cell-based. The procedure: Leishmania Donovani Axenic Amastigote Proliferation Assay
Leishmania donovani axenic amastigote parasites are grown at 37° C., 5% CO2 in media made of RPMI 1640, 4 mM L-glutamine, 20% heat inactivated FBS, 100 units/ml of penicillin and 100 μg/ml of streptomycin, 23 μM Folic Acid, 100 μM Adenosine, 22 mM D-glucose, 25 mM MES. The pH of media is adjusted to 5.5 at 37° C. using HCl. 20 μL of media is first dispensed into 384 well plates and 100 nL of the compounds of invention in DMSO are added to the plate wells. At the same time control compounds and DMSO are added to plates to serve as the positive and negative controls, respectively. 40 μL of parasite culture (9600 parasites) are then added to the plate wells. The plates are then placed into incubators. After 2 day incubation, 20 μL of Cell TiterGlo (Promega) is added to the plate wells. The luminescence signal of each well is measured using the Envision reader (Perkin Elmer). The percentage inhibition of 50%, EC50, is calculated for each of the compounds.

In assay [2] the test system is L. donovani HU3 strain in mouse peritoneal macrophages. Kind of assay: Assay for proliferation of Leishmania parasites in mouse peritoneal macrophages. The format is cell-based, Leishmania donovani. As to conditions: Leishmania donovani, Peritoneal macrophage. The text has this: Assay for Proliferation of Leishmania Parasites
The activity of a compound according to the present invention for inhibition of parasitemai can be assessed by the parasite proliferation assay. The assay measures the increase in the parasite number in the assayed plate well using a DNA intercalating dye, SYBR Green I® dye (INVITROGEN) to stain Leishmania cell nuclei. It is understood that the assays illustrate the invention without in any way limiting the scope of the invention.
L. donovani HU3 strain is propagated by infecting BALB/c mice through tail vein injection with 10^7 Leishmania parasites. Infected mice are allowed to develop infection during 9-11 weeks post-infection. During this time, the parasites accumulate in the infected mouse spleens to large numbers, and the infected mice serve as the source of parasites for the in vitro measurement of compound efficacies. To assay a compound for anti-leishmanial activity, peritoneal macrophages isolated from non-infected BALB/c mice are seeded into 384-well plates at density 2×10^4 macrophages per well in […] of medium (RPMI 1640, 10% […], 10 mM HEPES, 1 mM sodium pyruvate, 1% Pen/Strep). Subsequently, the seeded plates are placed into an incubator set to maintain 37° C. temperature and atmosphere with 5% CO2. The next day, Leishmania parasites are isolated from the spleens of mice infected for 9-11 weeks and 4×10^5 isolated parasites in […] of the above media are added to each plate well. Plates are then returned into incubators and infection is allowed to proceed for 24 hours. After the infection of macrophages is completed, […] of compounds of the invention in the above medium, which also contains 5% DMSO, are added to plate wells containing infected macrophages. At the same time control compounds (miltefosine and amphotericin B) and DMSO are added to plates to serve as the positive and negative controls, respectively. After the compound addition, the plates are returned into incubator and cells infected with parasites are cultured for 5 days. At the end of cultivation, […] of 8% paraformaldehyde is added to plate wells and incubated for 15 min at room temperature. Following the incubation, the paraformaldehyde from plate wells is aspirated, and […] of PBS containing 0.2% Triton X-100 is added to wells. After 15 min incubation, the solution is aspirated from wells again, and replaced with SybrGreen Dye solution in PBS (1:125,000 dilution). Infected cells are imaged with Evotec Opera high-content microscope, and the number of parasites in well is determined by counting parasite nuclei visualized by staining with SybrGreen dye. The percentage inhibition of 50%, EC50, is calculated for each compound.
The inhibitory efficacy of the compounds of the invention in delaying the proliferation of L. donovani in mouse peritoneal macrophages is provided in Table I, infra.

[3] abbreviates: read-out: L. donavani Macrophage EC50.

Take `CCCc1cnc2nc(-c3cc(NC(=O)c4ccco4)ccc3Cl)[nH]c2c1` [Example 75, N-(4-chloro-3-{6-propyl-1H-imidazo[4,5-b]pyridin-2-yl}phenyl)furan-2-carboxamide]: the EC50 (commonly the concentration at which the effect is half-maximal) in assay [1] (axenic amastigotes in vitro) amounted to 9.3 µM; in assay [2] (setting [3]) it was 25.6 µM.
On the same counts, the results for `O=C(Nc1ccc(Cl)c(-c2nc3ncc(-c4ccc(OCC5CCOCC5)cc4)cc3[nH]2)c1)c1ccco1` [Compound 26] are 0.68 µM and 2.17 µM.
With `COCn1c(-c2cc(NC(=O)N3CCCC3)ccc2Cl)nc2cc(Br)cnc21` [Example 385, N-{3-[6-bromo-3-(methoxymethyl)-3H-imidazo[4,5-b]pyridin-2-yl]-4-chlorophenyl}pyrrolidine-1-carboxamide], the EC50 is above 23.2 µM in assay [1] and above 10.9 µM in assay [2] (setting [3]).
Consider `Cc1cnc2nc(-c3cc(NC(=O)c4cc5ccccn5n4)ccc3F)[nH]c2c1` [Compound 274], for which the EC50 in assay [1] (axenic amastigotes in vitro) is 17 µM; in assay [2] (setting [3]), 26.7 µM.
For the compound `CC(C)(C)c1nnc(C(=O)Nc2ccc(F)c(-c3nc4ncc(Br)cc4o3)c2)o1` [Compound 407], the EC50 in assay [1] (axenic amastigotes in vitro) is above 25 µM; in assay [2] (setting [3]), above 4.2 µM.
On the same counts, the results for `Cc1cncc(C(=O)Nc2ccc(Cl)c(-c3nc4ncc(C)cc4[nH]3)c2)c1` [Compound 102] are 16.1 µM and 11.7 µM.
On to `Nc1ccc(-c2cnc3nc(-c4cc(NC(=O)c5ccco5)ccc4Cl)[nH]c3c2)cn1` [Compound 24], for which the EC50 in assay [1] (axenic amastigotes in vitro) is 0.165 µM; in assay [2] (setting [3]), 2.89 µM.
Take `Cc1cnc2nc(-c3cc(NC(=O)c4nc(C)oc4C(F)(F)F)ccc3Cl)[nH]c2c1` [Compound 176]: the EC50 was above 25 µM in assay [1] (axenic amastigotes in vitro) and above 50 µM in assay [2] (setting [3]).
For the compound `Cc1cnc2nc(-c3cc(NC(=O)CCCN(C)C)ccc3F)[nH]c2c1` [Compound 275], the EC50 is above 25 µM in assay [1] (axenic amastigotes in vitro) and above 50 µM in assay [2] (setting [3]).
On the same counts, the results for `Cc1cnc2nc(-c3cc(NC(=O)C4CCO4)ccc3Cl)[nH]c2c1` (stereo not drawn) [Compound 103] are above 25 µM and above 50 µM.
`Cc1cnc2nc(-c3cc(NC(=O)c4ccnc(C)c4)ccc3Cl)[nH]c2c1` [Compound 188]: the values for the EC50 in assay [1] (axenic amastigotes in vitro) and in assay [2] (setting [3]) were 2.26 µM and 11.6 µM, respectively.
For the compound `CC(C)c1cnc2nc(-c3cc(NC(=O)c4ccco4)ccc3Cl)[nH]c2c1` [Compound 77], the EC50 came out at 6.7 µM in assay [1] (axenic amastigotes in vitro) and 35 µM in assay [2] (setting [3]).
On the same counts, the results for `COC(=O)Nc1ccc(-c2cnc3nc(-c4cc(NC(=O)Nc5ccc(C(F)(F)F)cc5)ccc4F)oc3c2)cc1` [Compound 402] are above 24 µM and 10 µM.
Regarding `O=C(Nc1ccc(Cl)c(-c2nc3ncc(-c4ccc(OCCN5CCCC5)cc4)cc3[nH]2)c1)c1ccco1` [Compound 55], the EC50 in assay [1] (axenic amastigotes in vitro) was 2.06 µM; in assay [2] (setting [3]), 6.7 µM.
As for `O=C(Nc1ccc(Cl)c(-c2nc3ncc(Br)cc3[nH]2)c1)c1ccc(F)o1` [Compound 373], the values for the EC50 in assay [1] (axenic amastigotes in vitro) and in assay [2] (setting [3]) were 0.55 µM and 2.15 µM, respectively.
For `CC(C)OC(=O)Nc1ccc(Cl)c(-c2nc3ncc(-c4ccccc4N)cc3[nH]2)c1` [Compound 334], the EC50 in assay [1] (axenic amastigotes in vitro) is 0.26 µM; in assay [2] (setting [3]), 0.99 µM.
Consider `O=C(Nc1ccc(Cl)c(-c2nc3ncc(-c4ccncc4)cc3[nH]2)c1)c1ccco1` [Compound 10], for which the EC50 in assay [1] (axenic amastigotes in vitro) amounted to 0.89 µM; in assay [2] (setting [3]) it was 1.12 µM.
`CC(C)OC(=O)Nc1ccc(Cl)c(-c2nc3ncc(-c4ccccc4NC(=O)CCN)cc3[nH]2)c1` [Compound 342]: the EC50 in assay [1] (axenic amastigotes in vitro) is above 25 µM; in assay [2] (setting [3]), 39.1 µM.
`COCCOc1ccc(-c2cnc3nc(-c4cc(NC(=O)N5CCCC5)ccc4F)[nH]c3c2)cc1` [Compound 312]: the EC50 stood at 1.75 µM in assay [1] (axenic amastigotes in vitro) and 3.7 µM in assay [2] (setting [3]).
For `NS(=O)(=O)c1ccc(-c2cnc3nc(-c4cc(NC(=O)c5ccco5)ccc4Cl)[nH]c3c2)cc1` [Compound 66], in that order: 4.6 µM and above 39.1 µM.
For `COC(=O)Nc1ccc(Cl)c(-c2nc3ncc(C#N)cc3[nH]2)c1` [Compound 290], the EC50 in assay [1] (axenic amastigotes in vitro) was determined as 15.6 µM; in assay [2] (setting [3]), 17.4 µM.
`CC(C)OC(=O)Nc1ccc(Cl)c(-c2nc3ncc(-c4ccc(NC(=O)CN)cc4)cc3[nH]2)c1` [Compound 338]: the EC50 in assay [1] (axenic amastigotes in vitro) is 2.4 µM; in assay [2] (setting [3]), 0.42 µM.
In the case of `CC(C)OC(=O)Nc1ccc(Cl)c(-c2nc3ncc(-c4ccccc4NC(=O)CN)cc3[nH]2)c1` [Compound 340], the EC50 in assay [1] (axenic amastigotes in vitro) was found to be 11.7 µM; in assay [2] (setting [3]) it was 9.8 µM.
On the same counts, the results for `O=C(Nc1ccc(Cl)c(-c2nc3ncc(Br)cc3[nH]2)c1)c1cocn1` [Compound 369] are above 25 µM and above 50 µM.
Regarding `Cc1cnc2nc(-c3cc(NC(=O)c4cncc(Cl)n4)ccc3Cl)[nH]c2c1` [Compound 127], the EC50 is 1.2 µM in assay [1] (axenic amastigotes in vitro) and 4.8 µM in assay [2] (setting [3]).
Turning to `C[C@@H](CO)NCc1cnc2nc(-c3cc(NC(=O)c4ccco4)ccc3Cl)[nH]c2c1` [Compound 38], the EC50 in assay [1] (axenic amastigotes in vitro) is above 25 µM; in assay [2] (setting [3]), above 50 µM.
`CC(C)OC(=O)Nc1ccc(Cl)c(-c2nc3ncc(C#N)cc3[nH]2)c1` [Example 287, Propan-2-yl N-(4-chloro-3-{6-cyano-1H-imidazo[4,5-b]pyridin-2-yl}phenyl)carbamate]: the EC50 is 1.44 µM in assay [1] (axenic amastigotes in vitro); around 0.08 µM in assay [2] (120 h, L. donovani in mouse peritoneal macrophages, 5 days culture, SybrGreen parasite nuclei count, read-out: EC50); 0.078 µM in assay [2] (setting [3]).
With `CNc1ccc(-c2cnc3nc(-c4cc(NC(=O)c5ccc(CN(C)C)o5)ccc4Cl)[nH]c3c2)cc1` [Compound 347], the EC50 in assay [1] (axenic amastigotes in vitro) is above 25 µM; in assay [2] (setting [3]) it was 7.2 µM.
On to `CN(C)Cc1ccc(-c2cnc3nc(-c4cc(NC(=O)c5ccco5)ccc4Cl)[nH]c3c2)cc1` [Compound 15], for which the EC50 in assay [1] (axenic amastigotes in vitro) was determined as 6.1 µM; in assay [2] (setting [3]), 0.72 µM.
On the same counts, the results for `O=C(Nc1ccc(F)c(-c2nc3ncc(-c4ccc(OCCN5CCOCC5)cc4)cc3[nH]2)c1)N1CCCC1` [Compound 295] are 2.86 µM and 1.27 µM.
Take `O=C(Nc1ccc(Cl)c(-c2nc3ncc(-c4ccc(OCCn5ccnc5)cc4)cc3[nH]2)c1)c1ccco1` [Compound 71]: the EC50 in assay [1] (axenic amastigotes in vitro) came out at 4 µM; in assay [2] (setting [3]), 1.86 µM.
Turning to `COCCOc1ccc(-c2cnc3nc(-c4cc(NC(=O)N5CCCC5)ccc4Cl)[nH]c3c2)cc1` [Compound 303], the results for the EC50 in assay [1] (axenic amastigotes in vitro) and in assay [2] (setting [3]) were 0.146 µM and 0.4 µM, respectively.
Regarding `CCc1nnc(C(=O)Nc2ccc(F)c(-c3nc4ncc(Br)cc4o3)c2)o1` [Example 404, N-(3-{6-bromo-[1,3]oxazolo[4,5-b]pyridin-2-yl}-4-fluorophenyl)-5-ethyl-1,3,4-oxadiazole-2-carboxamide], the results for the EC50 in assay [1] (axenic amastigotes in vitro) and in assay [2] (setting [3]) were above 25 µM and above 50 µM, respectively.
`Cc1cnc2nc(-c3cc(NC(=O)c4ccc(OC(F)(F)F)cc4)ccc3Cl)[nH]c2c1` [Compound 210]: the EC50 is above 22 µM in assay [1] (axenic amastigotes in vitro) and above 37.7 µM in assay [2] (setting [3]).
`O=C(Nc1ccc(Cl)c(-c2nc3ncc(C(F)(F)F)cc3[nH]2)c1)c1ccc(F)o1` [Compound 284]: the EC50 in assay [1] (axenic amastigotes in vitro) was 0.7 µM; in assay [2] (setting [3]), 4.1 µM.
In the case of `CN(C)c1ccc(-c2cnc3nc(-c4cc(NC(=O)c5ccco5)ccc4Cl)[nH]c3c2)cc1` [Compound 67], the EC50 in assay [1] (axenic amastigotes in vitro) stood at 2.12 µM; in assay [2] (setting [3]), 2.5 µM.
For the compound `Cc1ccc(C(=O)Nc2ccc(F)c(-c3nc4ncc(-c5ccsc5)cc4[nH]3)c2)o1` [Example 381, N-{4-fluoro-3-[6-(thiophen-3-yl)-1H-imidazo[4,5-b]pyridin-2-yl]phenyl}-5-methylfuran-2-carboxamide], the EC50 in assay [1] (axenic amastigotes in vitro) came out at 2.5 µM; in assay [2] (setting [3]), 1.6 µM.
